Measured values taken from publication PMC5759193, “The tankyrase inhibitor G007-LK inhibits small intestine LGR5^+ stem cell proliferation without altering tissue morphology” (Biological Research, 2018).
Several values for one entry are separate records, joined by “and”; a condition that tells them apart may be missing. Identical values can stand only once. Like-named read-outs stand apart in the source and are kept apart here.

Experiments:
canonical WNT signalling = test: β-catenin IHC of duodenal crypt base cells; format: in vivo, mice; conditions: gavage 10 mg/kg n = 2 and 50 mg/kg n = 1
Protocol: (§1) Mouse tissue was fixed overnight in 4% PFA, routinely processed and paraffin embedded. The paraffin-embedded tissue was sectioned at 3–4.5 μm. IHC staining was performed as previously described, with primary antibodies against β-catenin, green fluorescent protein (GFP), Lysozyme and Chromogranin A (rabbit monoclonal anti-β-catenin, Abcam ab32572; rabbit monoclonal anti-GFP, Cell Signaling Technology #2956; rabbit monoclonal anti-Lysozyme, Abcam ab108508; rabbit polyclonal anti-Chromogranin A, Abcam ab15160). For quantitative analyses of the IHC-stained tissue sections, the slides were scanned using the Hamamatsu Digital Slide Scanner NanoZoomer 2.0-HT C9600-13 and the number of positive and negative cells in up to 10 crypts or villi from each animal was counted manually. Periodic acid-Schiff (PAS) and Alcian blue staining was performed at the Department of Pathology, Oslo University Hospital, using standard protocols.
To verify that the administered doses of the tankyrase inhibitor had the expected effect on canonical WNT signalling, we stained duodenal tissue sections with a β-catenin-specific antibody. Nuclear localisation of β-catenin implied active canonical WNT signalling in vehicle (n = 3), (Fig. 4a) and G007-LK-treated (gavage 10 mg/kg, n = 2 and 50 mg/kg, n = 1) mice (Fig. 4b).

[1] = cited from earlier work
[2] = Pharmacokinetic analysis in plasma after G007-LK enriched chow; format: in vivo, ICR mice; conditions: for G007-LK Concentration in plasma, Mean: n=5; for Cmax: 0 h
Protocol: To address the pharmacokinetic properties of the tankyrase inhibitor G007-LK, ICR mice (n = 25) were treated for 3 days with a G007-LK-enriched diet, containing 100 mg G007-LK/kg chow. […] Pharmacokinetic parameters of G007-LK following administration of enriched diet for three consecutive days are listed in Table 1.

duodenal crypt cells = test: BrdU labelling of duodenal crypt cells; format: in vivo, mice; conditions: 100 mg/kg chow
Protocol: Slides with tissue sections were deparaffinised in xylene and re-hydrated through a graded series of ethanol. Heat-antigen retrieval was performed in 10 mM sodium-citrate buffer supplemented with 0.05% Tween 20 in a pressure cooker for 3 min and the slides were slowly cooled down. Slides were rinsed in washing buffer (PBS supplemented with 0.1% Tween), incubated with blocking buffer (PBS supplemented with 5% goat serum and 5% bovine serum albumin (BSA)) for 30 min at room temperature and rinsed in washing buffer. Primary antibodies (mouse monoclonal anti-BrdU, ThermoFisher #B35128; monoclonal anti-GFP, Cell Signalling #2956) diluted in blocking buffer were applied and incubated over night at 4 °C. […]
Mice were treated with BrdU (100 mg/kg body mass) 1 h before being sacrificed or with daily 1 mg BrdU injections for 7 days prior to sacrifice. […] BrdU-labelled cells were detected using a BrdU IHC kit (Abcam #125306) according to the manufacturer’s protocol, or using a monoclonal anti-BrdU antibody (ThermoFisher #B35128) and a Mouse-on-Mouse kit (Vector Laboratories #BMK-2202) according to the IHC protocol outlined above. The fraction of BrdU-labelled crypt cells was calculated.

duodenum = test: Duodenal morphology and cellular composition (H&E, PAS, Alcian blue, Lysozyme, Chromogranin A); format: in vivo, mice
Protocol: as §1
Similar data for the goblet cells were obtained by Alcian blue staining of acidic mucin (Additional file 5: Figure S4A–C).

[3] = Tolerance: body mass, food consumption, clinical observations
Protocol: Medicilon Preclinical Research (Shanghai) LCC performed the pharmacokinetic studies; in brief, ICR mice (n = 25) from Sion-British SIPPR/BK Lab Animal Ltd, Shanghai were fed 100 mg G007-LK/kg chow enriched diet ad libitum for 3 consecutive days, body mass and food consumption was measured daily.
The body mass of the G007-LK-treated mice and the amount of consumed chow was measured 5 days per week. […] The mice were treated with G007-LK for 9 days by oral gavage or 21 days with the enriched diet.
The tolerance of G007-LK treatment in the experimental mice used in this study was further evaluated by short-term oral gavage treatment daily for 9 days with 10 or 50 mg G007-LK/kg body mass (Fig. 1d). […] For long-term treatment, mice were fed G007-LK-enriched diets, 100 or 1000 mg G007-LK/kg chow for up to 3 weeks (Fig. 1f).

[4] = test system: LGR5^+ intestinal stem cells; test: Lineage tracing from LGR5^+ intestinal stem cells in duodenum (confocal microscopy, GFP IHC)
Protocol: Pieces of duodenum from mice that had undergone induced lineage tracing were fixed for 30 min in 4% paraformaldehyde (PFA) at room temperature, rinsed in PBS and immediately prepared for confocal microscopic analyses. Under a stereo microscope one row of intestinal villi was sectioned from the duodenal wall with a scalpel, rinsed in dH2O and embedded in Mowiol 4-88 (Sigma-Aldrich). The samples were examined with a Zeiss LSM 780 confocal microscope (Carl Zeiss MicroImaging GmbH) equipped with a multiline argon laser (458/488/514 nm), a 10 mW DPSS laser (561 nm), a 405-30 CW laser diode (405 nm), and a helium–neon (HeNe) laser (633 nm). The objective used was a Zeiss Plan-Apochromat 20×/0.8 DIC II. To calculate the numbers and volumes of the traced cells, confocal Z-stacks were analysed with Imaris 7.7.2 (Bitplane AG). A similar threshold for the segmentation of the traced cells was used in all Z-stacks examined. Image visualisations were performed with the basic Zeiss LSM 780 ZEN 2010 software, Photoshop CS4 (Adobe), and Imaris 7.7.2.
as §1

[5] = 6 months, 158 mg/kg chow, high fat-based diet
[6] = ICR mice, female, diet containing G007-LK 100 mg/kg chow 3 days, plasma
[7] = ICR mice, 100 mg G007-LK/kg chow, 3 days

CS(=O)(=O)c1ccc(-c2nnc(/C=C/c3nnc(-c4ccc(C#N)cc4)o3)n2-c2ccccc2Cl)nc1 [G007-LK]
fraction of β-catenin-positive nuclei in crypt base cells vs control (canonical WNT signalling): significant (t test, p < 0.05) reduction
glucose metabolism [1, 5]: improved glucose tolerance and insulin sensitivity
toxic effects [1, 5]: did not lead to visible toxic effects
small intestine toxicity ([1]; intermediate and high doses, up to 100 mg/kg body mass once daily 14–20 days, i.p. or orally): partially reversible focal necrosis and inflammation in the small intestine
G007-LK Concentration in plasma, single animals G1-1 to G1-5 ([2]; 0 h after diet removal): 773,96 ng/mL and 795,28 ng/mL and 756,04 ng/mL and 696,04 ng/mL and 791,2 ng/mL
G007-LK Concentration in plasma, Mean ([2]; 0 h after diet removal): 762,5 ng/mL
G007-LK Concentration in plasma, single animals G1-1 to G1-5 ([2]; 1 h after diet removal): 676,41 ng/mL and 696,8 ng/mL and 608,34 ng/mL and 669,24 ng/mL and 689,94 ng/mL
G007-LK Concentration in plasma, Mean ([2]; 1 h after diet removal): 668,15 ng/mL
G007-LK Concentration in plasma, single animals G1-1 to G1-5 ([2]; 2 h after diet removal): 639,46 ng/mL and 649,54 ng/mL and 610,19 ng/mL and 589,18 ng/mL and 567,65 ng/mL
G007-LK Concentration in plasma, Mean ([2]; 2 h after diet removal): 611,2 ng/mL
G007-LK Concentration in plasma, single animals G1-1 to G1-5 ([2]; 4 h after diet removal): 335,27 ng/mL and 378,3 ng/mL and 216,65 ng/mL and 474,86 ng/mL and 316,33 ng/mL
G007-LK Concentration in plasma, Mean ([2]; 4 h after diet removal): 344,28 ng/mL
G007-LK Concentration in plasma, single animals G1-1 to G1-5 ([2]; 12 h after diet removal): 52,75 ng/mL and 105,7 ng/mL and 112,65 ng/mL and 158,02 ng/mL and 111,12 ng/mL
G007-LK Concentration in plasma, Mean ([2]; 12 h after diet removal): 108,05 ng/mL
Cmax ([2]; ICR mice, diet containing G007-LK 100 mg/kg chow 3 days, plasma, read-out: Cmax): 1440 ± 80 nM
AUC(0-t) [2, 6]: 4119.80 ng·h/mL
AUC(0-∞) [2, 6]: 4770.32 ng·h/mL
Cmax [2, 6]: 762.50 ng/mL
t1/2 ([2]; ICR mice, female, diet containing G007-LK 100 mg/kg chow ad libitum 3 days, plasma, non-compartmental): 4.17 h
F^a bioavailability ([2]; enriched chow vs IV data of ref 26, calculated from AUC(0-t)): 22.22%
F^b bioavailability ([2]; enriched chow vs IV data of ref 26, calculated from AUC(0-∞)): 20.69%
BrdU-labelled cells after daily BrdU for 7 days (duodenal crypt cells; n = 3): BrdU-labelled cells were observed at the tips of the villi
ratio of BrdU positive crypt cells (duodenal crypt cells; n = 7, BrdU 1 h (control 0.28), p < 0.05): 0.14
gross morphology of the duodenum (crypts and villi), H&E (duodenum; 9 days gavage 10 or 50 mg/kg, 21 days enriched diet 100 or 1000 mg/kg chow): maintained
crypt abscesses (duodenum; distal duodenum and ileum): occasional crypt abscesses were observed
morphology of epithelial cell layer (duodenum; distal duodenum and ileum): did not induce major morphological changes
distribution of Paneth cells in crypt base (Lysozyme IHC) vs control (duodenum; duodenum): equal distribution pattern
distribution of enteroendocrine cells (Chromogranin A IHC) vs control (duodenum; duodenum): comparable distribution patterns
number of PAS stained goblet cells vs vehicle (duodenum; duodenum, gavage 50 mg/kg): no significant difference
crypt:villus ratios, crypt duplication rates or size, goblet cell number or size, crypts per villus base (duodenum; proximal duodenum, gavage treated vs control): no statistically significant (t test, p > 0.05) changes
changes in body mass [3, 7]: minor, not statistically significant
food consumption [3, 7]: stable day 2 and 3 of the G007-LK enriched chow administration period, but statistically significant lower (t test, p < 0.05) the first day
macroscopic phenotypes [3, 7]: No obvious macroscopic abnormal phenotypes were observed
tolerability ([3]; daily doses up to approximately 200 mg/kg body mass, gavage or enriched diet): well tolerated
lineage tracing after stop of treatment (G007-LK-stop, reversibility) ([4]; 100 mg/kg chow 2 weeks, G007-LK-free diet 2 days before tamoxifen, tracing 7 days): presence of lineage traced cells throughout the entire length of the villi
average ratio of crypts with GFP positive cells versus total counted crypts ([4]; GFP IHC, G007-LK treated mice n = 10 (control 0.51)): 0.39
reduction of ratio of crypts with GFP positive cells versus total counted crypts, compared with control ([4]; GFP IHC, n = 10 treated, p = 0.05): 23%
location of lineage traced cells when treatment starts after tamoxifen ([4]; Lgr5-EGFP-CreERT2;R26R-tdTomato mice, 100 mg/kg chow 6 days, started 24–36 h after tamoxifen): lineage traced cells were detected in the middle of the duodenal villi
number of villi with traced cells vs control ([4]; duodenum): significantly (t test, p < 0.05) reduced
number of lineage traced cells vs control ([4]; image analysis, duodenum): significant (t test, p < 0.05) reduction
volume of lineage traced cells vs control ([4]; image analysis, duodenum): significant (t test, p < 0.05) reduction
lineage tracing from LGR5^+ stem cells ([4]; long-term, 100 mg/kg chow, duodenum): markedly reduced lineage tracing
